Experimental data published in patent publication US6492330B1, “Antiangiogenic drugs” (National Institute of Immunology, priority 1996, dated 2002).
Positions of bridges follow the written chain, without caps; N, C: chain ends. Non-standard residues stand in square brackets, D forms with d. No end group written: not given here. Deg = CCC(N)(CC)C(=O)O; Aib = CC(C)(N)C(=O)O

Columns and labels:
Type in all cases: cell-based
ECV.304 cells = assay: MTT assay, inhibition of proliferation of endothelial cells ECV.304; settings: 72 hours (Table 2)
Procedure: 150 μl of medium was added to the wells of a 96-well tissue culture plate (Nunc, Denmark) followed by 30 μl of cell suspension. The plate was left in incubator (37° C., 5% CO2) overnight. Each of the seven peptides of the combination MuJ-7 were added at three molar concentrations of 10^−7M, 10^−8M and 10^−9M. 20 μl of MuJ-7 at three concentrations of N/10, N and 10N was added to marked wells of the 96-well plate. The value of N for each of the individual peptides was 10^−8M for VIP2, BOM1, SP1, VIP3, and SOM2 and 10^−7M for VIP1, and 10^−9M for SOM1. Each concentration was plated in triplicate. 20 μl of medium alone was added to control wells while wells without cells served as blanks. A total volume of 200 μl was ensured in each well and the plate was left in an incubator (37° C., 5% CO2). After 72 hours of incubation an MTT assay was performed and percentage inhibition in proliferation of treated cells was calculated with respect to control cells.
150 μl of medium was added to the wells of a 96-well tissue culture plate (Nunc, Denmark) followed by 30 μl of cell suspension. The plate was left in incubator (37° C., 5% CO2) overnight. Novel peptides shown below were incubated with cells at concentration range of 10^−7 to 10^−9 M (except DT71 at concentration range 10^−8 to 10^−10 M). Each concentration was plated in triplicates. 20 μl of medium alone was added to control wells while wells without cells served as blanks. A total volume of 200 μl was ensured in each well and plate was left in incubator (37° C., 5% CO2). After 72 hours of incubation an MTT assay was performed and percentage inhibition in proliferation of treated cells was calculated with respect to control cells.

ECV304 = assay: Tube-like-structure (TLS) formation on Matrigel; settings: 24 hours
Procedure: Matrigel (350 ul) was placed into each well of a 24-well culture plate at 4° C. and was allowed to polymerize by incubation at 37° C. for 30 min. ECV304 (1.5×10^4) were seeded on the Matrigel in 500 ul DMEM supplemented with 10% FBS. MuJ-7 at four different concentrations of 0.25×, 0.5×, ×, & 5.0× were added and. the plate incubated at 37° C. for 24 hour. “×” denotes normal concentration of MuJ-7 where molar concentration of individual peptides was 10^−8 M for VIP2, BOM1, SP1, VIP3 and SOM2 and 10^−7 M for VIP1 and 10^−9 M for SOM1. […] Percent inhibition in tube area was determined with reference to untreated cells.
Matrigel (350 ul) was placed into each well of a 24-well culture plate at 4° C. and was allowed to polymerize by incubation at 37° C. for 30 min. ECV304 (1.5×10^4) were seeded on the Matrigel in 500 ul DMEM supplemented with 10% FBS. […] Percent inhibition in tube length was determined with reference to untreated cells.
Matrigel (350 ul) was placed into each well of a 24-well culture plate at 4° C. and was allowed to polymerize by incubation at 37° C. for 30 min. ECV304 (1.5×10^4) were seeded on the Matrigel in 500 ul DMEM supplemented with 10% FBS. Individual peptides of the composition MuJ-7 at three different concentrations each of N/10, N, and 10N were added and the plate incubated at 37° C. for 24 hours. […] Percent inhibition in tube length was determined with reference to Control. Similarly, three different concentrations of N/10, N, and 10N of MuJ-7 were added to the well and the plate incubated at 37° C. for 24 hours. Percent inhibition in tube length was determined with reference to Control as described previously (Table 10).

[1] = system: endothelial cells ECV.304; assay: Migration assay across 8 μm polycarbonate filter transwell inserts; settings: 24 hours (Table 4)
Procedure: Polycarbonate filter transwell inserts (24 well size) with 8 μm pores (Nunc, Denmark) were used for the migration assay. ECV304 (10^4 cells/200 ul DMEM containing 0.1% BSA) was added to the upper chamber. The lower chamber contained 600 ul of DMEM with 0.1% BSA. Individual peptides of the composition MuJ-7 at six different concentrations each of N/100, N/10, N, 10N, 100N and 1000N were added directly to the upper well and the plate incubated at 37° C. for 24 hours. The cells migrated to the lower chamber were viewed randomly at five different phase-contrast microscopic fields and the total number of cells counted using Video Pro 32 Image Analysis system. Percent inhibition in migration was determined with reference to the Control. Similarly, […] different concentrations of N/100, N/10, N, 10N, 100N and 1000N of MuJ-7 were added directly to the upper well and the plate incubated at 37° C. for 24 hours. The cells migrated to the lower chamber were counted as described above.
Polycarbonate filter trasnwell inserts (24 well size) with 8 μm pores (Nuno, Denmark) were used for the migration assay. ECV304 (10^4 cells/200 ul DMEM containing 0.1% BSA) was added to the upper chamber. The lower chamber contained 600 ul of DMEM with 0.1% BSA. […] The sequence of each of the peptides added are described above. The cells migrated to the lower chamber were viewed randomly at five different phase-contrast microscopic fields and the total number of cells counted using Video Pro 32 Image Analysis system. Percent inhibition in migration was determined with reference to Control. […]

[2] = analog at optimum concentration −8M

Row | Substance | PERCENT INHIBITION OF PROLIFERATION (ECV.304 cells; ECV304, 10^−7M) | PERCENT INHIBITION OF PROLIFERATION (ECV.304 cells; ECV304, 10^−8M) | PERCENT INHIBITION OF PROLIFERATION (ECV.304 cells; ECV304, 10^−9M) | INHIBITION OF TUBE LENGTH (ECV304; peptide −8M) | PERCENT INHIBITION MIGRATION [1, 2] | PERCENT INHIBITION OF PROLIFERATION (ECV.304 cells; ECV304, 10^−10M) | INHIBITION OF TUBE LENGTH (ECV304; peptide −9M) | PERCENT INHIBITION MIGRATION ([1]; analog at optimum concentration −9M)
1 | [dF]QWAV[Aib]HL-NH2 [DT-24] | 6.4% | 9.8% | 10.7% | 16.2% | 0% | – | – | –
2 | D-Phe-Cys-Tyr-D-Trp-Lys-Thr-Aib-Thr-NH2 (XCYXKTXT; D-amino acids, Aib, C-terminal amide) [DT-71] | – | 14.6% | 12.1% | – | – | 9.4% | 9.9% | 68.2%
3 | Ala-Aib-Cys-Lys-Asn-Phe-Phe-D-Trp-Lys-Thr-Phe-Thr-Ser-Cys (A[Aib]CKNFF[dW]KTFTSC; ends and bridges not checked) [DT-62B] | 14.0% | 3.8% | 12.8% | 0% | 8.5% | – | – | –
4 | [dF]QWAV[Aib]HI-NH2 [DT-27] | 14.3% | 11.9% | 6.7% | 29.7% | 0% | – | – | –
5 | Leu-Met-Tyr-Pro-Thr-Tyr-D-Leu-Lys-OH (LMYPTY[dL]K-OH; N-terminus assumed; SMILES CSCC[C@H](NC(=O)[C@@H](N)CC(C)C)C(=O)N[C@@H](Cc1ccc(O)cc1)C(=O)N1CCC[C@H]1C(=O)N[C@H](C(=O)N[C@@H](Cc1ccc(O)cc1)C(=O)N[C@H](CC(C)C)C(=O)N[C@@H](CCCCN)C(=O)O)[C@@H](C)O) [DT-14] | 17.0% | 6.0% | 20.5% | 24.3% | 77.3% | – | – | –
6 | Aib-Met-Gln-Trp-Phe-Aib-NH2 ([Aib]MQWF[Aib]-NH2; N-terminus assumed; SMILES CSCC[C@H](NC(=O)C(C)(C)N)C(=O)N[C@@H](CCC(N)=O)C(=O)N[C@@H](Cc1c[nH]c2ccccc12)C(=O)N[C@@H](Cc1ccccc1)C(=O)NC(C)(C)C(N)=O) [DT-31] | 1.3% | 14.1% | 6.1% | 17.1% | 0% | – | – | –
7 | Ala-Aib-Cys-Lys-Asn-Phe-Phe-D-Trp-Lys-Thr-Phe-Thr-Ser-Cys (3-14 Disulphide bond) (A[Aib]CKNFF[dW]KTFTSC; disulfide 3-14) [DT-62A] | 11.7% | 20.1% | 25.7% | 44.1% | 62.2% | – | – | –
8 | LM[dY]PTY[dL]K-OH [DT-15] | 20.4% | 13.2% | 20.0% | 0% | 73.2% | – | – | –
9 | Aib-Met-Tyr-Pro-Thr-Tyr-Deg-Lys-OH ([Aib]MYPTY[Deg]K-OH; N-terminus assumed; SMILES CCC(CC)(NC(=O)[C@H](Cc1ccc(O)cc1)NC(=O)[C@@H](NC(=O)[C@@H]1CCCN1C(=O)[C@H](Cc1ccc(O)cc1)NC(=O)[C@H](CCSC)NC(=O)C(C)(C)N)[C@@H](C)O)C(=O)N[C@@H](CCCCN)C(=O)O) [DT-18] | 23.3% | 10.9% | 14.4% | 0% | 73.2% | – | – | –
10 | [dL]MQWF[Aib]-NH2 [DT-33] | 8.7% | 15.8% | 13.9% | 13.5% | 41.4% | – | – | –
11 | D-Leu-Met-Tyr-Pro-Thr-Tyr-D-Leu-Lys-OH ([dL]MYPTY[dL]K-OH; N-terminus assumed; SMILES CSCC[C@H](NC(=O)[C@H](N)CC(C)C)C(=O)N[C@@H](Cc1ccc(O)cc1)C(=O)N1CCC[C@H]1C(=O)N[C@H](C(=O)N[C@@H](Cc1ccc(O)cc1)C(=O)N[C@H](CC(C)C)C(=O)N[C@@H](CCCCN)C(=O)O)[C@@H](C)O) [DT-16] | 24.0% | 24.7% | 37.9% | 18.9% | 90.07% | – | – | –
12 | Leu-Met-Tyr-Pro-Thr-D-Tyr-Leu-Lys-OH (LMYPT[dY]LK-OH; N-terminus assumed; SMILES CSCC[C@H](NC(=O)[C@@H](N)CC(C)C)C(=O)N[C@@H](Cc1ccc(O)cc1)C(=O)N1CCC[C@H]1C(=O)N[C@H](C(=O)N[C@H](Cc1ccc(O)cc1)C(=O)N[C@@H](CC(C)C)C(=O)N[C@@H](CCCCN)C(=O)O)[C@@H](C)O) [DT-13] | 22.6% | 20.3% | 18.4% | 16.2% | 89.7% | – | – | –
13 | Aib-Met-Tyr-Pro-Thr-Tyr-Aib-Lys-OH ([Aib]MYPTY[Aib]K-OH; N-terminus assumed; SMILES CSCC[C@H](NC(=O)C(C)(C)N)C(=O)N[C@@H](Cc1ccc(O)cc1)C(=O)N1CCC[C@H]1C(=O)N[C@H](C(=O)N[C@@H](Cc1ccc(O)cc1)C(=O)NC(C)(C)C(=O)N[C@@H](CCCCN)C(=O)O)[C@@H](C)O) [DT-11] | 16.7% | 18.7% | 19.9% | 3.6% | 82.5% | – | – | –
14 | [dR]PKP[Aib]Q[dW]F[dW][Aib]L-NH2 [DT-34] | 12.1% | 15.6% | 14.3% | 0% | 53.6% | – | – | –
15 | D-Phe-Gln-Trp-Aib-Val-Gly-His-Ile-NH2 ([dF]QW[Aib]VGHI-NH2; N-terminus assumed; SMILES CC[C@H](C)[C@H](NC(=O)[C@H](Cc1c[nH]cn1)NC(=O)CNC(=O)[C@@H](NC(=O)C(C)(C)NC(=O)[C@H](Cc1c[nH]c2ccccc12)NC(=O)[C@H](CCC(N)=O)NC(=O)[C@H](N)Cc1ccccc1)C(C)C)C(N)=O) [DT-26] | 0% | 0% | 0% | 0% | 0% | – | – | –
